Among the data in patent publication US20250320184A1 (SIRONAX LTD., priority 2022, published 2025) are IC50 values, retold here.

Molecules are shown by their SMILES.

This test has as its target T1, SARM1 (50-724) (Homo sapiens, UniProt Q6SZW1).
T1 sequence (Q6SZW1 50-724): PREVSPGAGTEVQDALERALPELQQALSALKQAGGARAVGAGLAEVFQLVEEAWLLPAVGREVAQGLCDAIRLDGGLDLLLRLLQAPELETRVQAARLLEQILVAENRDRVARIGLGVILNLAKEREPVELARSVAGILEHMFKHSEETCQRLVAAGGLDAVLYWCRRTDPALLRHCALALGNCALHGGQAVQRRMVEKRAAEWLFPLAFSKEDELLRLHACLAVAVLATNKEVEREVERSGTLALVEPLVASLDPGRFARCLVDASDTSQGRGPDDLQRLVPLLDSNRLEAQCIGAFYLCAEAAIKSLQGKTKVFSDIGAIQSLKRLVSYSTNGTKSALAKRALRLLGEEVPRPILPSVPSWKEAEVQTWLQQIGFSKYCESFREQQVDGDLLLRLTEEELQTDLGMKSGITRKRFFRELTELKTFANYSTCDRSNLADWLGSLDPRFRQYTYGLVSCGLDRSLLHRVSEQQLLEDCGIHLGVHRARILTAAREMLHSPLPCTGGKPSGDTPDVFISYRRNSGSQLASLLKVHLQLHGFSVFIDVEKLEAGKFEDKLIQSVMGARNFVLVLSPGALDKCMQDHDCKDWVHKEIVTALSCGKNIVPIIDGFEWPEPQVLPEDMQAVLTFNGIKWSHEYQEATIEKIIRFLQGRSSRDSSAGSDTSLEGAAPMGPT
In words: biochemical.
Description: An enzymatic assay was performed in a 384-well plate using Dulbecco's phosphate-buffered saline (PBS) as the reaction buffer. […] The reaction was initiated by adding a mixture of 200 μM nicotinamide mononucleotide (NMN) as activator and 100 μM NAD^+ as substrate. After 1 h of incubation at room temperature, the reaction was terminated with 10 times volume of 70% acetonitrile, then centrifuged at 3800 rpm for 10 min.
For the compound `CC(Nc1ccc2nc[nH]c(=O)c2c1)c1c(Cl)ccc(F)c1Cl` (single isomer, unassigned) [Example 201A], the IC50 was over 1000 nM.
In the case of `CC(Nc1ccc2nc[nH]c(=O)c2c1)c1c(Cl)ccc(F)c1Cl` (single isomer, unassigned) [Example 201] it was under 100 nM.
In the case of `Cc1n[nH]c(=O)c2cc(N[C@H](C)c3c(Cl)ccc(F)c3Cl)ccc12` (single isomer, unassigned) [Example 237A] it was 500 to 1000 nM; in that of `Cc1n[nH]c(=O)c2cc(N[C@@H](C)c3c(Cl)ccc(F)c3Cl)ccc12` (single isomer, unassigned) [Example 237], under 100 nM; in that of `Cc1n[nH]c(=O)c2cc(N[C@@H](C)c3nc(Cl)c(Cl)s3)ccc12` (single isomer, unassigned) [Example 239A], under 100 nM.
In the case of `Cc1n[nH]c(=O)c2cc(NC(C)c3nc(Cl)c(Cl)s3)ccc12` (single isomer, unassigned) [Example 239B] it was over 1000 nM.
As for `CC(Nc1cc(F)c2ncn(-c3ccn[nH]3)c(=O)c2c1)c1nc(Cl)c(Cl)s1` (single isomer, unassigned) [Example 356A], the half-inhibitory concentration (IC50) was over 1000 nM.
`CC(Nc1cc(F)c2ncn(-c3ccn[nH]3)c(=O)c2c1)c1nc(Cl)c(Cl)s1` (single isomer, unassigned) [Example 356] returned a concentration for half-maximal inhibition (IC50) of under 100 nM.
In the case of `CC(Nc1cc(F)c2ncn(-c3cn[nH]c3)c(=O)c2c1)c1nc(Cl)c(Cl)s1` (single isomer, unassigned) [Example 374] it was under 100 nM; in that of `Cc1c2ccc(NC(C)c3nc(Cl)c(Cl)s3)cc2nn1[C@@H]1CC[C@@H](O)C1` (stereo in doubt) [Compound 335, 3-(6-((1-(4,5-dichlorothiazol-2-yl)ethyl)amino)-3-methyl-2H-indazol-2-yl)cyclopentan-1-ol], under 100 nM; in that of `Cc1c2ccc(NC(C)c3nc(Cl)c(Cl)s3)cc2nn1[C@@H]1CC[C@H](O)C1` (stereo in doubt) [Compound 336, 3-(6-((1-(4,5-dichlorothiazol-2-yl)ethyl)amino)-3-methyl-2H-indazol-2-yl)cyclopentan-1-ol], under 100 nM.
In the case of `Cc1ccc(Cl)c(S(=O)(=O)Nc2ccc3c(c2)C(=O)NCC3)c1Cl` [Compound 2, 2,6-dichloro-3-methyl-N-(1-oxo-3,4-dihydro-2H-isoquinolin-7-yl)benzenesulfonamide] it was under 100 nM.
The same measure for `Cc1c(F)cccc1S(=O)(=O)Nc1ccc2c(c1)NC(=O)CC2` [Compound 3, 3-fluoro-2-methyl-N-(2-oxo-1,2,3,4-tetrahydroquinolin-7-yl)benzenesulfonamide]: 100 to 500 nM; for `Cc1c(F)cccc1S(=O)(=O)Nc1ccc2c(c1)CN(C(=O)OC(C)(C)C)CC2` [Compound 4]: over 1000 nM.
`Cc1c(F)cccc1S(=O)(=O)Nc1ccc2c(c1)C(=O)OCC2` [Compound 5, 3-fluoro-2-methyl-N-(1-oxoisochroman-7-yl)benzenesulfonamide]: the IC50 was over 1000 nM.
Turning to `Cc1c(F)cccc1S(=O)(=O)Nc1ccc2c(c1)C(=O)NCCC2` [Compound 6, 3-fluoro-2-methyl-N-(1-oxo-2,3,4,5-tetrahydro-1H-benzo[c]azepin-8-yl)benzenesulfonamide], the 50% inhibitory concentration (IC50) is 100 to 500 nM.
In the case of `Cc1c(F)cccc1S(=O)(=O)Nc1ccc2c(c1)CC(=O)NC2` [Compound 7, 3-fluoro-2-methyl-N-(3-oxo-1,2,3,4-tetrahydroisoquinolin-6-yl)benzenesulfonamide] it was over 1000 nM; in that of `Cc1c(F)cccc1S(=O)(=O)Nc1ccc2c(c1)CCC(=O)N2` [Compound 8, 3-fluoro-2-methyl-N-(2-oxo-1,2,3,4-tetrahydroquinolin-6-yl)benzenesulfonamide], over 1000 nM.
`Cc1ccccc1S(=O)(=O)Nc1ccc2c(c1)C(=O)NCC2` [Compound 9, 2-methyl-N-(1-oxo-1,2,3,4-tetrahydroisoquinolin-7-yl)benzenesulfonamide]: the IC50 was over 1000 nM.
In the case of `Cc1ccc(F)cc1S(=O)(=O)Nc1ccc2c(c1)C(=O)NCC2` [Compound 10, 5-fluoro-2-methyl-N-(1-oxo-1,2,3,4-tetrahydroisoquinolin-7-yl)benzenesulfonamide] it was over 1000 nM; in that of `O=S(=O)(Nc1ccc2cc[nH]c2c1)c1cccc(Cl)c1Cl` [Compound 11, 2,3-dichloro-N-(1H-indol-6-yl)benzenesulfonamide], under 100 nM; in that of `O=C1NCCc2ccc(NS(=O)(=O)c3cc(F)cc(Br)c3)cc21` [Compound 12, 3-bromo-5-fluoro-N-(1-oxo-1,2,3,4-tetrahydroisoquinolin-7-yl)benzenesulfonamide], over 1000 nM.
The same measure for `Cc1c(Br)cccc1S(=O)(=O)Nc1ccc2c(c1)C(=O)NCC2` [Compound 13, 3-bromo-2-methyl-N-(1-oxo-1,2,3,4-tetrahydroisoquinolin-7-yl)benzenesulfonamide]: under 100 nM.
In the case of `Cc1c(F)cccc1S(=O)(=O)Nc1ccc2c(c1)CCCC2` [Compound 14, 3-fluoro-2-methyl-N-(5,6,7,8-tetrahydronaphthalen-2-yl)benzenesulfonamide] it was 500 to 1000 nM.
`Cc1c(F)cccc1S(=O)(=O)Nc1ccc2cc[nH]c(=O)c2c1` [Compound 15, 3-fluoro-2-methyl-N-(1-oxo-1,2-dihydroisoquinolin-7-yl)benzenesulfonamide] displayed an IC50 of under 100 nM.
The same measure for `Cc1ccnc2cc(NS(=O)(=O)c3cccc(Cl)c3Cl)ccc12` [Compound 16, 2,3-dichloro-N-(4-methylquinolin-7-yl)benzenesulfonamide]: 100 to 500 nM; for `Cc1cccc(C)c1S(=O)(=O)Nc1ccc2c(c1)C(=O)NCC2` [Compound 18, 2,6-dimethyl-N-(1-oxo-1,2,3,4-tetrahydroisoquinolin-7-yl)benzenesulfonamide]: 500 to 1000 nM.
In the case of `CC1Cc2ccc(NS(=O)(=O)c3cccc(Cl)c3Cl)cc2C(=O)N1` (centres unmarked) [Compound 19, 2,3-dichloro-N-(3-methyl-1-oxo-1,2,3,4-tetrahydroisoquinolin-7-yl)benzenesulfonamide] it was 100 to 500 nM; in that of `O=C1NCCc2ccc(NS(=O)(=O)c3cccc(Cl)c3Cl)cc21` [Compound 20, 2,3-dichloro-N-(1-oxo-1,2,3,4-tetrahydroisoquinolin-7-yl)benzenesulfonamide], under 100 nM.
In the case of `Cc1c(F)cccc1S(=O)(=O)Nc1ccc2c(c1)C(=O)N(C)CC2` [Compound 21, 3-fluoro-2-methyl-N-(2-methyl-1-oxo-1,2,3,4-tetrahydroisoquinolin-7-yl)benzenesulfonamide] it was 100 to 500 nM; in that of `O=c1[nH]ccc2ccc(NS(=O)(=O)c3cccc(Cl)c3Cl)cc12` [Compound 22, 2,3-dichloro-N-(1-oxo-1,2-dihydroisoquinolin-7-yl)benzenesulfonamide], under 100 nM; in that of `O=c1[nH]cnc2ccc(NS(=O)(=O)c3cccc(Cl)c3Cl)cc12` [Compound 23, 2,3-dichloro-N-(4-oxo-3,4-dihydroquinazolin-6-yl)benzenesulfonamide], 100 to 500 nM.
In turn, `Cc1c(F)cccc1S(=O)(=O)Nc1ccc2cnn(C(=O)OC(C)(C)C)c2c1` [Compound 24, tert-butyl 6-((3-fluoro-2-methylphenyl)sulfonamido)-1H-indazole-1-carboxylate] came in with an IC50 of over 1000 nM.
For `Cc1c(F)cccc1S(=O)(=O)Nc1ccc2cn[nH]c2c1` [Compound 25, 3-fluoro-N-(1H-indazol-6-yl)-2-methylbenzenesulfonamide], the IC50 is 500 to 1000 nM.
In the case of `Cc1cnc2cc(NS(=O)(=O)c3cccc(Cl)c3Cl)ccc2c1` [Compound 26, 2,3-dichloro-N-(3-methylquinolin-7-yl)benzenesulfonamide] it was under 100 nM.
The same measure for `Cc1c(F)cccc1S(=O)(=O)Nc1cccc(N2CCCC2=O)c1` [Compound 27, 3-fluoro-2-methyl-N-(3-(2-oxopyrrolidin-1-yl)phenyl)benzenesulfonamide]: over 1000 nM.
The same measure for `Cc1c(F)cccc1S(=O)(=O)Nc1cccc(N2CCN(C)C2=O)c1` [Compound 28, 3-fluoro-2-methyl-N-(3-(3-methyl-2-oxoimidazolidin-1-yl)phenyl)benzenesulfonamide]: over 1000 nM; for `Cc1nc2cc(NS(=O)(=O)c3cccc(Cl)c3Cl)ccc2s1` [Compound 29, 2,3-dichloro-N-(2-methylbenzo[d]thiazol-5-yl)benzenesulfonamide]: 100 to 500 nM; for `Cc1cc(S(=O)(=O)Nc2ccc3c(c2)C(=O)NCC3)c(F)cc1F` [Compound 30, 2,4-difluoro-5-methyl-N-(1-oxo-1,2,3,4-tetrahydroisoquinolin-7-yl)benzenesulfonamide]: 100 to 500 nM.
With `NC(=O)Cc1ccc(NS(=O)(=O)c2cccc(Cl)c2Cl)cc1` [Compound 31, 2-(4-((2,3-dichlorophenyl)sulfonamido)phenyl)acetamide], the IC50 lay within 100 to 500 nM.
With `Cc1c(F)cccc1S(=O)(=O)Nc1ccc2scnc2c1` [Compound 32, N-(benzo[d]thiazol-5-yl)-3-fluoro-2-methylbenzenesulfonamide], the half-maximal inhibitory concentration (IC50) lay within 100 to 500 nM.

The IC50 is the midpoint of a concentration-inhibition curve. A high value points to weaker potency in that assay.
